From patent US10577349B2 (Sanford Burnham Prebys Medical Discovery Institute, priority 2015, dated 2020)
Values after ≈ are worked out from the molar mass of the structure shown. Read-outs that look alike come from different tables or passages of the source.

Tests used:
[1] = target: EmCV Cap-independent translation; experiment: In vitro translation assay, FF-EmCV-Ren construct, cap-independent (Ren luciferase); assay type: biochemical, rabbit reticulocyte lysates
Summary of the method: (§1)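 RRL + Translation Mix -Met/-Leu 1:1; cpd pre-inc 1 h RT; 0.1 μg RNA/well; 2 h 30° C; Dual-Glo reagent 1 → FF read, reagent 2 → Ren read, 10 min each. Counter-screen: cpd added post-translation.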

[2] = target: HCV cap-independent translation; experiment: In vitro translation assay, FF-HCV-Ren construct, cap-independent (Ren luciferase); assay type: biochemical, rabbit reticulocyte lysates
Summary of the method: as §1

[3] = Aqueous Solubility in pION's buffer; assay type: physicochemical
PAMPA Permeability = assay type: in vitro ADME
[4] = Hepatic Microsome Stability Human; assay type: in vitro ADME
Compound 38 PK Study = assay type: in vivo, C57Bl/6J mice; conditions: male, C57Bl/6J, mouse, plasma
Protocol: Method: Fasted male C57Bl/6J mice were dosed with a 1 mg/mL solution of Compound 38 in 10% DMSO, 10% Tween-80 and 80% water by intravenous injection (2 mg/kg, as a 0.4 mg/mL solution), oral gavage (10 mg/kg as a 1 mg/mL solution) or intraperitoneal injection (10 mg/kg as a 1 mg/mL solution). Plasma was collected at various time points and analyzed by LC/MS/MS to determine compound levels.

eIF4F complex [5] = target: T1, eIF4F complex (Homo sapiens, UniProt Q04637); experiment: m7GTP pull-down assay, UACC903 melanoma cells; assay type: cell-based
T1 construct: PLX4032), or Compound 38; endogenous in cells; host or cells: A375, A375R, Lu1205R, WM793R melanoma cells
Protocol: (§2) As previously described (Dowling R J, et al. mTORC1-mediated cell proliferation, but not cell growth, controlled by the 4E-BPs. Science. 2010; 328:1172-6), cells growing in 100 mm plates were washed (cold PBS), collected, and lysed in 50 mM MOPS/KOH (7.4), 100 mM NaCl, 50 mM NaF, 2 mM EDTA, 2 mM EGTA, 1% NP40, 1% Na-DOC, 7 mM β-mercaptoethanol, protease inhibitors and phosphatase inhibitor cocktail (Roche). Lysates were incubated with m7-GDP-agarose beads (Jena Bioscience) for 20 minutes, washed 4 times with the washing buffer containing 50 mM MOPS/KOH (7.4), 100 mM NaCl, 50 mM NaF, 0.5 mM EDTA, 0.5 mM EGTA, 7 mM (3-mercaptoethanol, 0.5 mM PMSF, 1 mM Na3VO4 and 0.1 mM GTP, and bound proteins were eluted by boiling the beads in loading buffer. m7-GDP-agarose pulled down material was analyzed by Western blot analysis.
The dissociation of eIF4G1 from the eIF4F complex was determined using m^7GTP-agarose pull-down, which captures the eIF4F complex. […] Proteins prepared from UACC903 melanoma cells were treated with indicated Compound 38 concentrations and incubated with m^7GTP-agarose beads to capture the eIF4F complex. Shown is dose-dependent inhibition of eIF4G1 binding to eIF4E, concomitant with increased binding of inhibitory 4E-BP1 to eIF4E. Bottom, the total cell lysate.

eIF4F complex [6] = target: T2, eIF4F complex (Mus musculus, UniProt Q6NZJ6); experiment: m7GTP pull-down assay, WT or 4E-BP DKO MEFs; assay type: cell-based; conditions: 6 hours, Torin1 250 nmol/L
T2 construct: endogenous in cells; host or cells: WT and 4E-BP1/2 double-knock-out MEFs
T2 sequence (Q6NZJ6 whole entry, one chain of several): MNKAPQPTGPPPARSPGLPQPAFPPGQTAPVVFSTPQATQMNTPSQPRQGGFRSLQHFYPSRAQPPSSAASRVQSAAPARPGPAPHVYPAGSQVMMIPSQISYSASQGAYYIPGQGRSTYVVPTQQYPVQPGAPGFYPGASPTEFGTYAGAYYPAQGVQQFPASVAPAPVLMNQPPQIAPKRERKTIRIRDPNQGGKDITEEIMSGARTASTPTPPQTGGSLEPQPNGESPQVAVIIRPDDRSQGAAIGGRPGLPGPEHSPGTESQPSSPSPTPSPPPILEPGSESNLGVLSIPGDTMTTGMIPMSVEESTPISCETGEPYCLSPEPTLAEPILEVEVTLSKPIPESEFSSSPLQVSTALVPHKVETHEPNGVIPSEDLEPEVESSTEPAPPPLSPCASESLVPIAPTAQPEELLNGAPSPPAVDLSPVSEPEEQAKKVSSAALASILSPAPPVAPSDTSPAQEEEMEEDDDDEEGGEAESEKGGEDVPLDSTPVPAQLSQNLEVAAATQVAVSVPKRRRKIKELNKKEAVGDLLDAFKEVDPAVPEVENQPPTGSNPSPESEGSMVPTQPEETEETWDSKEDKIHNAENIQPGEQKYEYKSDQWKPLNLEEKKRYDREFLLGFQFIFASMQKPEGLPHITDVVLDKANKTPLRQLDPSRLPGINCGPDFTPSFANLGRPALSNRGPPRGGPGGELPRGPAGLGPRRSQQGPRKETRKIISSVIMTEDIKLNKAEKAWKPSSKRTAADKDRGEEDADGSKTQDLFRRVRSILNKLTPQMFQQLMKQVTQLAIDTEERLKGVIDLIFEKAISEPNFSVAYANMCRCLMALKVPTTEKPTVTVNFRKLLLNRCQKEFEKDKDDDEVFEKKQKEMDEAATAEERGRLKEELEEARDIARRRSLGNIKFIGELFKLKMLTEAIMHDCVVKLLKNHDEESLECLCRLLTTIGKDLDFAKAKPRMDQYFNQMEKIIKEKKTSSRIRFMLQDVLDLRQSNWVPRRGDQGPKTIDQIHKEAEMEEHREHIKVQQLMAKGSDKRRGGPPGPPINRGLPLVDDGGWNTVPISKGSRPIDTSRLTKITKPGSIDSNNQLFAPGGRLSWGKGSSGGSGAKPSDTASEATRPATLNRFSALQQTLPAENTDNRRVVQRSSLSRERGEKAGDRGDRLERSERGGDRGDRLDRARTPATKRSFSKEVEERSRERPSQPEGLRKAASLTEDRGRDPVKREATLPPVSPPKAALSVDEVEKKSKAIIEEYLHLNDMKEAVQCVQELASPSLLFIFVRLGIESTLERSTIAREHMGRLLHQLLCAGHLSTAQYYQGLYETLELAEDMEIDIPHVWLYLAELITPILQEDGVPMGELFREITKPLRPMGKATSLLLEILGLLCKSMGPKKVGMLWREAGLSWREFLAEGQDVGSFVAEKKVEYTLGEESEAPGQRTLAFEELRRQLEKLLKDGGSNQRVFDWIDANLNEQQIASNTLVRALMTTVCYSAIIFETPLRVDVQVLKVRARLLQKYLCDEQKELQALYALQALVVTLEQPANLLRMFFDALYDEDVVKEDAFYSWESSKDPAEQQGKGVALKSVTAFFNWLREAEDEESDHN
Protocol: as §2
Indicated cultures (WT or DKO 4E-BP) were treated with Torin1 (250 nmol/L) or indicated Compound 38 concentrations for 6 hours. Western blots show respective protein levels in total cell lysates or following pull-down using m^7GTP agarose beads. […] P3-Actin served as a loading control and to exclude contamination in m^7GTP pull-down.

[7] = tested on: E1A/RAS-transformed 4E-BP DKO MEFs; experiment: Proliferation of E1A/Ras-transformed MEFs (BrdUrd incorporation); assay type: cell-based; conditions: 48 hours
Protocol: E1A/Ras-transformed WT or 4e-bp1/4e-bp2 DKO MEFs were treated with either Torin1 or Compound 38 at indicated concentrations and cell proliferation was measured 48 hours later with the aid of BrdUrd incorporation. Values were normalized to DMSO-treated triplicates. Error bars, SD (n=3).

`O=C(/C=C/c1cncc(F)c1)c1c(-c2ccccc2)c2cc(Cl)ccc2[nH]c1=O` [Compound 38, 6-Chloro-3-[3-(5-fluoro-pyridin-3-yl)-acryloyl]-4-phenyl-1H-quinolin-2-one] gave an IC50 [1] of 2 to 10 µM, an IC50 [2] of 2 to 10 µM and a solubility ([3]; aqueous buffer, pH 5.0, read-out: Aqueous Solubility in pION's buffer pH 5.0) of 6.5 µg/mL (≈ 16.1 µM). The solubility ([3]; pH 6.2, aqueous buffer, read-out: Aqueous Solubility in pION's buffer pH 6.2) was 6.6 µg/mL (≈ 16.3 µM), the solubility ([3]; pH 7.4, aqueous buffer, read-out: Aqueous Solubility in pION's buffer pH 7.4) was 5.5 µg/mL (≈ 13.6 µM) and the Papp (PAMPA Permeability; Donor pH 5.0, Acceptor pH 7.4, read-out: PAMPA Permeability, Pe, Donor pH 5.0) was 1110 ×10⁻⁶ cm/s. For the same molecule, the Papp (PAMPA Permeability; Donor pH 6.2, Acceptor pH 7.4, read-out: PAMPA Permeability, Pe, Donor pH 6.2) was 1150 ×10⁻⁶ cm/s, the Papp (PAMPA Permeability; pH 7.4, Donor pH 7.4, Acceptor pH 7.4, read-out: PAMPA Permeability, Pe, Donor pH 7.4) was 820 ×10⁻⁶ cm/s and the “Hepatic Microsome Stability (% Remaining at 1 hr) Human” value [4] was 24.12 % Remaining. For the same molecule, the “Hepatic Microsome Stability (% Remaining at 1 hr) Human (no NADPH)” value ([4]; no NADPH) was 57.84 % Remaining, the half-life (Compound 38 PK Study) was 2.95 h and the clearance (Compound 38 PK Study; IV 2 mg/kg) was 67 mL/min/kg. For the same molecule, the bioavailability (Compound 38 PK Study; oral gavage 10 mg/kg) was 20%, the “dissociation of eIF4G1 from the eIF4F complex (m7GTP-agarose pull-down)” value (eIF4F complex [5]) was “dissociated eIF4G1 from the eIF4E in a dose-dependent manner” and the “eIF4G1:eIF4E association (m7GTP pull-down)” value (eIF4F complex [6]) was “reduced eIF4G1:eIF4E association in both WT and 4E-BP DKO MEFs”. The “proliferation of E1A/RAS-transformed 4E-BP DKO MEFs” value [7] was “attenuated the proliferation”.
